Data from PMC9884808, “Pharmacokinetics, tissue distribution, and antitumor activity of a novel compound, NY-2, in non-small cell lung cancer” (Frontiers in Pharmacology, 2023).

Experiments:
[1] = test system: HUVECs; assay: MTT cytotoxicity on normal cells; assay type: cell-based, human; conditions: concentration of 10 μM or below, 48 h
Description: The human colorectal cancer cell lines, HCT116 and LoVo, the breast cancer cell line, T47D, the hepatocellular carcinoma cell line, HepG2, the normal human liver cell line, HL7702, human umbilical vein endothelial cells (HUVECs), and the non-small cell lung cancer cell lines, A549, H1993, HCC827, H460, were purchased from the American Type Culture Collection (Manassas, VA, United States). Cell lines were cultured in the recommended RPMI-1640 medium (AE24464298, Hyclone, United States) and DMEM medium (AE29422278, Hyclone, United States) supplemented with 10% fetal bovine serum (FBS; JC63470, FB15015, Clark, United States) with 1% penicillin-streptomycin. […]
Cell viability was measured by the MTT assay. […] An assay kit (WLA073, Wanlei Co., Liaoning, China), was used according to the manufacturer’s instructions to measure LDH activity, The absorbance at 450 nm was measured with a microplate reader (Elx-800, Bio-Rad, China).
First, the effects of NY-2 and ZLDI-8 on the survival rates of four NSCLC cell lines, A549, H1993, HCC827, H460, were compared by the MTT cytotoxicity assay. The various types of NSCLC cells were incubated with increasing concentrations of NY-2 and ZLDI-8 (1.25, 2.5, 5, 10, and 20 μM), and the cell viability at 48 h was measured. […]

[2] = test system: A549 cells; assay: Transwell invasion assay; assay type: cell-based, human; conditions: 48 h
Description: For the transwell invasion assay, Matrigel (50 mg/L) was diluted 1:8 with serum-free medium, and 60 μL of diluted Matrigel was pipetted into each transwell (Corning, NY, United States) and incubated overnight. The upper chamber was seeded with 1× 10^5 cells that had been starved for 24 h in 100 µL of serum-free medium, and 700 µL of medium with 10% FBS was added to the lower compartment. After cultivation for 48 h at 37°C, the cells in the upper chamber were removed with a cotton swab, and the cells on the lower surface of the filter were fixed with methanol for 20 min and stained with 0.1% crystal violet after drying. Excess stain was eluted with 33% acetic acid, and the absorbance was measured at 490 nm.

[3] = test system: Notch1 and integrinβ1; assay: Western blot protein analysis; assay type: cell-based, human
Excerpt: Antibodies against ADAM17 (Cat. No. ab39163), Notch1 (Cat. No. ab52627), integrin β1 (Cat. No. ab52971), β-actin (Cat. No. ab8226), and anti-rabbit IgG (Cat. No. ab6728) and anti-mouse IgG (Cat. No. ab190475) secondary antibodies conjugated with horseradish peroxidase (HRP) were purchased from Abcam (Cambridge, United Kingdom). Total protein was extracted from HCC cells, and samples were separated by SDS-PAGE and blotted to polyvinylidene fluoride (PVDF) membranes (Millipore, Billerica, MA, United States). The membranes were blocked and then incubated with primary antibodies, followed by washing and incubation with HRP-conjugated secondary antibodies. Stained blots were developed with enhanced chemiluminescence reagents (Pierce, Rockford, IL, United States) and imaged on X-ray film.

[4] = test system: A549 cells; assay: Apoptosis, annexin-V/PI double staining; assay type: cell-based, human; conditions: 48 h, control 0.86 ± .05%
Description: For the apoptosis assay, cells were seeded into 6-well plates at 1× 10^5 cells per well, and after attachment for 4–6 h, they were incubated with different concentration of NY-2 for 48 h. After washing with 1×PBS, the cells were stained with Hoechst 33342 (5 μg/mL, 1 mL per well, C1022, Beyotime Biotechnology, China) for 20 min in a 37°C incubator followed by two washes with PBS. The number of apoptotic cells was counted under an inverted fluorescence microscope (Olympus, Japan). Apoptosis was also determined using an annexin V-FITC apoptosis detection kit (ABS50001, Absin Bioscience Inc., Shanghai, China). Cells were plated in 100 mm Petri dishes at a density of 1 × 10^6 cells/dish, after 4–6 h for attachment, cells were incubated with different concentrations of NY-2 for 48 h. For each sample, cells were harvested by trypsin digestion without EDTA and washed with 1 × PBS. Cells were resuspended in 300 μL of binding buffer, and 5 μL of annexin V-FITC solution were added and incubated at room temperature in the dark for 15 min, followed by the addition of 5 μL of propidium iodide (PI) solution. The sample staining was assessed by flow cytometry (BD Co., United States).

[5] = Acute toxicity assay in KM mice; assay type: in vivo; conditions: tail vein injection 1000 mg/kg in saline, 10 days observation, 6 animals per group
Description: An acute toxicity assay was assessed in KM mice by tail vein injection of NY-2 dissolved in saline at a dose of 1000 mg/kg (6 animals per group).

[6] = test system: A549 cells; assay: Colony formation assay; assay type: cell-based, human; conditions: 2.5, 5, 10 μM; 9 days of growth
[7] = Metabolic stability, liver microsome incubation; assay type: in vitro ADME; conditions: 100 μM
Description: Rat liver microsomes (RLMS) and human liver microsomes (HLMs) were purchased from RILD and BioIVT, respectively.The metabolic stability of 100 μm Zldi-8 and NY-2 in rat and human liver microsomes was investigated. Zldi-8/NY-2(100 ΜM)10 μl, mgcl210 ΜL, RLMs/HLMs 62.5 μl, PBS (ph 7.4)117.5 μl, NADPH 50 ΜL were added to the metabolic incubation system in ice bath, respectively.After adding in sequence, the incubation systems were pre-incubated for 3 min in a 37 ° C incubator, and then NADPH was added to start the reaction, and the incubation systems were removed at 0 min, 5 min, 10 min, 20 min, 30 min, 60 min, 90 min, 50 ΜL incubation solution was taken out respectively, and the reaction was stopped by rapidly adding equal volume of ice acetonitrile solution containing propranolol hydrochloride (internal standard) , vortex for 3 min, centrifugation at 4 ° C, 9500 rpm for 10 min, the content of the supernatant was determined by HPLC.The experiment was repeated three times in parallel.

SMILES: Cc1c(C=C2C(=O)NC(=S)NC2=O)c2ccccc2n1CCOc1ccc(F)cc1 [NY-2]
- cytotoxic effects on HUVEC cells [1]: no obvious cytotoxic effects
- invasion of A549 cells [2]: inhibit the invasion and migration of A549 cells in a concentration-dependent manner
- expression of Notch1 and integrinβ1 [3]: reduced the expression of Notch1 and integrinβ1in a dose-dependence manner
- percentage of A549 cells in apoptosis ([4]; 5 μM): 5.45 ± 3.28%
- percentage of A549 cells in apoptosis ([4]; 10 μM): 20.29 ± 3.11%
- deaths in acute toxicity assay [5]: no deaths occurred
- colony formation of A549 cells [6]: inhibit colony formation of A549 cells in a concentration-dependent manner
- residual level (metabolic stability) ([7]; human liver microsomes): greater than that of ZLDI-8
- residual level (metabolic stability) ([7]; rat liver microsomes): greater than that of ZLDI-8
